Experimental data published in paper PMC8954547, “Nonpeptidic Z360-Analogs Tagged with Trivalent Radiometals as Anti-CCK2R Cancer Theranostic Agents: A Preclinical Study” (Pharmaceutics, 2022).
Where “and” joins values, the source holds several entries; their conditions need not be identical. Equal values may be shown once.

Key:
[1] = system: HEK293-CCK2i4svR and wtHEK293 xenografts; assay: SPECT/CT of HEK293-CCK2i4svR and wtHEK293 xenografts; type: in vivo, mice; conditions: 4 h and 24 h pi
Method: For SPECT/CT imaging, six mice bearing twin HEK293-CCK2i4svR and wtHEK293 tumors were injected in the tail vein with a bolus containing [^111In]In-GAS1/2/3 (100 μL, 9–12 MBq associated with 3 nmol total injected analog in-vehicle: saline/EtOH 9/1 v/v). Mice were euthanized at 4 h and 24 h pi. Tomographic SPECT/CT imaging was performed with the y-CUBE/x-CUBE systems (Molecubes, Belgium). The SPECT system is based on monolithic NaI detectors attached to SiPMs, with a 0.6 mm intrinsic resolution. The CT system is based on a structured CMOS detector of CsI with pixels of 75 µm and operates between 35–80 kVp, 10–500 µA tube current, with a 33 µm fixed focal spot size. SPECT scans were acquired 4 h pi and 24 h pi, with a 40–50 min duration protocol based on the injected activity, and each SPECT scan was succeeded by a CT scan, following General-Purpose protocol under 50 kVp, for co-registration purposes. SPECT images were reconstructed using the MLEM reconstruction method with a 250 µm voxel size and 500 iterations. CT images were reconstructed using the ISRA reconstruction method with a 100 µm voxel size.
Images were exported and post-processed on VivoQuant software, version 4.0 (Invicro, Boston). A smoothing median filter (0.6 mm, spherical window) was applied to the images, and the bladder was removed for consistency purposes. Normalization of images was performed (i.e., all images having the same color scale range values) to achieve a direct visual comparison between the different groups.

[2] = Radioligand stability in mice (radio-HPLC of blood and urine); type: in vivo; conditions: mice blood collected 5 min pi; mean ± SD
Method: The formation of radiometabolites which can be detected in the blood was tested in blood samples collected 5 min post-injection (pi) of each of the radioligands [^67Ga]Ga/[^111In]In/[^177Lu]Lu-GAS1/3 and [^67Ga]Ga/[^111In]In-GAS2. For this study, in-house male Swiss albino mice (body weight: 30 ± 5 g, provided by the NCSR “Demokritos” Animal House) were used in groups of three. The animals received, through the tail vein, a 100-μL bolus containing each radioligand tested (2.5–3 nmol of the total conjugate in vehicle: saline/EtOH 9/1 v/v, corresponding to: up to 11 MBq for In-111, up to 13 MBq for Ga-67 and up to 74 MBq for Lu-177). Mice were euthanized, and blood was collected directly from the heart using a prechilled penicillin syringe and transferred in a prechilled EDTA-containing Eppendorf Protein LoBind® tube on ice (40 µL, 50 mM Na2EDTA solution). After centrifugation (10 min, 2000× g/4 °C, in a Hettich, Universal 320R, centrifuge), the blood plasma was collected, mixed with chilled MeCN in a 1/1 v/v ratio and centrifuged again (10 min, 15,000× g/4 °C). Supernatants were collected and concentrated to a small volume (≈50–100 μL) under a gentle N2-flux at 40 °C. They were then diluted with physiological saline (≈400 μL) and filtered through a Millex GV filter (0.22 μm, 13 mm Ø, Millipore, Milford, CT, USA). Aliquots of the filtrate were analyzed by radio-RP-HPLC using a Waters Symmetry Shield RP18 cartridge column (5 μm, 3.9 mm × 20 mm) eluted at a flow rate of 1.0 mL/min with the following gradient: 100% A/0% B to 55% A/45% B in 45 min; A = 0.1% aqueous TFA (v/v) and B = MeCN (system 2). The elution time (tR) of each parent radioligand was determined by coinjection of blood samples with an aliquot of the labeling solution on the HPLC column. Results were calculated as the average percentage of intact radioligand ± SD derived from three independent experiments.
Following the same injection protocol, radioligands were administered in additional groups of mice, but this time animals were euthanized 30 min pi. The urine was immediately collected from the bladder using a prechilled syringe and transferred as before in a prechilled EDTA-containing Eppendorf Protein LoBind® centrifuge tube on ice (40 µL, 50 mM Na2EDTA solution) and 0.1 mL of physiological saline. Urine proteins were precipitated by adding chilled MeCN in a 1/1 v/v ratio followed by a 10 min centrifugation step (15,000× g/4 °C). The supernatant was then collected and treated following the blood sample workup procedure. Aliquots of the Millex-GV filtrate (containing >90% of total urine activity) were analyzed by radio-HPLC, adopting the aforementioned conditions. Results were calculated as the average percentage of intact radioligand ± SD derived from three independent experiments.

[3] = system: SCID mice bearing twin HEK293-CCK2i4svR and wtHEK293 tumors; assay: Biodistribution in SCID mice bearing twin HEK293-CCK2i4svR and wtHEK293 xenografts; type: in vivo
Procedure, shortened: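 Uptake is expressed as %IA/g (mean ± SD, n = 4) from gamma counting of blood, organs and tumours collected at set times: 1, 4 and 24 h pi for ^67Ga, 4 and 24 h for ^111In (±gelofusine), 4–96 h for ^177Lu. Radioligands were given iv at 7–40 pmol to SCID mice bearing twin CCK2i4svR-transfected and wild-type HEK293 xenografts.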

[4] = 4 h + Gelo (Gelofusine-treated mice)
[5] = 24 h + Gelo (Gelofusine-treated mice)

SMILES: CC(C)(C)C(=O)CN1C(=O)[C@H](NC(=O)Nc2cccc(C(=O)NCCOCCOCCOCCNC(=O)[C@@H](CCC(=O)O)NC(=O)CCC(C(=O)[O-])N3CCN(CC(=O)[O-])CCN(CC(=O)[O-])CC3)c2)CN(C2CCCCC2)c2ccccc21.[111In+3] (stereo partly drawn) [[^111In]In-GAS2]
- SPECT/CT uptake in CCK2i4svR expressing tumors [1]: Intense uptake
- SPECT/CT uptake in wtHEK293 tumors devoid of CCK2i4svR expression [1]: no uptake is evident
- Intact radioligand in blood [2]: 73.1 ± 1.8% and 73.1 ± 1.8 (3) % and 98.3 ± 0.3 (3) %
- Biodistribution, Blood [3, 4]: 6.29 ± 1.08 %IA/g
- Biodistribution, CCK2i4svR(+) Tumor [3, 4]: 7.67 ± 0.61 %IA/g
- Biodistribution, CCK2i4svR(-) Tumor [3, 4]: 1.72 ± 0.30 %IA/g
- Biodistribution, Femur [3, 4]: 0.99 ± 0.17 %IA/g
- Biodistribution, Heart [3, 4]: 1.42 ± 0.21 %IA/g
- Biodistribution, Intestines [3, 4]: 9.48 ± 0.99 %IA/g
- Biodistribution, Kidneys [3, 4]: 21.90 ± 3.97 %IA/g
- Biodistribution, Liver [3, 4]: 4.56 ± 0.49 %IA/g
- Biodistribution, Muscle [3, 4]: 0.47 ± 0.04 %IA/g
- Biodistribution, Pancreas [3, 4]: 3.00 ± 0.58 %IA/g
- Biodistribution, Spleen [3, 4]: 1.32 ± 0.20 %IA/g
- Biodistribution, Stomach [3, 4]: 0.94 ± 0.15 %IA/g
- Biodistribution, Blood ([3]; 4 h pi): 6.40 ± 0.75 %IA/g
- Biodistribution, CCK2i4svR(+) Tumor ([3]; 4 h pi): 8.91 ± 1.59 %IA/g
- Biodistribution, CCK2i4svR(-) Tumor ([3]; 4 h pi): 1.82 ± 0.25 %IA/g
- Biodistribution, Femur ([3]; 4 h pi): 1.15 ± 0.10 %IA/g
- Biodistribution, Heart ([3]; 4 h pi): 1.61 ± 0.23 %IA/g
- Biodistribution, Intestines ([3]; 4 h pi): 9.71 ± 0.42 %IA/g
- Biodistribution, Kidneys ([3]; 4 h pi): 29.55 ± 3.64 %IA/g
- Biodistribution, Liver ([3]; 4 h pi): 5.42 ± 0.89 %IA/g
- Biodistribution, Lungs ([3]; 4 h pi): 3.27 ± 0.46 %IA/g
- Biodistribution, Muscle ([3]; 4 h pi): 0.56 ± 0.08 %IA/g
- Biodistribution, Pancreas ([3]; 4 h pi): 2.99 ± 0.96 %IA/g
- Biodistribution, Spleen ([3]; 4 h pi): 1.49 ± 0.14 %IA/g
- Biodistribution, Stomach ([3]; 4 h pi): 1.31 ± 0.21 %IA/g
- Biodistribution, Blood [3, 5]: 0.15 ± 0.02 %IA/g
- Biodistribution, CCK2i4svR(+) Tumor [3, 5]: 2.92 ± 0.37 %IA/g
- Biodistribution, CCK2i4svR(-) Tumor [3, 5]: 0.45 ± 0.09 %IA/g
- Biodistribution, Femur [3, 5]: 0.25 ± 0.03 %IA/g
- Biodistribution, Heart [3, 5]: 0.22 ± 0.03 %IA/g
- Biodistribution, Intestines [3, 5]: 0.75 ± 0.06 %IA/g
- Biodistribution, Kidneys [3, 5]: 11.51 ± 2.64 %IA/g
- Biodistribution, Liver [3, 5]: 0.95 ± 0.12 %IA/g
- Biodistribution, Lungs [3, 5]: 0.44 ± 0.07 %IA/g
- Biodistribution, Muscle [3, 5]: 0.08± 0.01 %IA/g
- Biodistribution, Pancreas [3, 5]: 0.30 ± 0.05 %IA/g
- Biodistribution, Spleen [3, 5]: 0.56 ± 0.17 %IA/g
- Biodistribution, Stomach [3, 5]: 0.35 ± 0.06 %IA/g
- Biodistribution, Blood ([3]; 24 h pi): 0.13 ± 0.02 %IA/g
- Biodistribution, CCK2i4svR(+) Tumor ([3]; 24 h pi): 2.78 ± 0.43 %IA/g
- Biodistribution, CCK2i4svR(-) Tumor ([3]; 24 h pi): 0.41 ± 0.10 %IA/g
- Biodistribution, Femur ([3]; 24 h pi): 0.24 ± 0.04 %IA/g
- Biodistribution, Heart ([3]; 24 h pi): 0.22 ± 0.01 %IA/g
- Biodistribution, Intestines ([3]; 24 h pi): 0.68 ± 0.15 %IA/g
- Biodistribution, Kidneys ([3]; 24 h pi): 10.16 ± 2.30 %IA/g
- Biodistribution, Liver ([3]; 24 h pi): 0.96 ± 0.22 %IA/g
- Biodistribution, Lungs ([3]; 24 h pi): 0.60 ± 0.37 %IA/g
- Biodistribution, Muscle ([3]; 24 h pi): 0.08 ± 0.01 %IA/g
- Biodistribution, Pancreas ([3]; 24 h pi): 0.29 ± 0.03 %IA/g
- Biodistribution, Spleen ([3]; 24 h pi): 0.51 ± 0.09 %IA/g
- Biodistribution, Stomach ([3]; 24 h pi): 0.36 ± 0.14 %IA/g
